Measured values reported in article PMC11561238, “Discovery and binding mode of small molecule inhibitors of the apo form of human TDO2” (Scientific Reports, 2024).
“And” between values parts separate entries of the source, which are not always exact repeats. Identical values can stand only once.

Key:
[1] = system: patients with unresectable or metastatic melanoma; parameters: method as in PMID 31221619; settings: with pembrolizumab, vs placebo; cited from earlier work
[2] = system: holo-TDO2; parameters: method as in PMID 27762317; settings: AMT bound to exosite; cited from earlier work
[3] = molecular target: T1, apo-TDO2 (Homo sapiens, UniProt P48775); experiment: Differential scanning fluorimetry (thermal shift) of apo-TDO2; type: binding
T1 construct: a longer construct (His6-aa19-406, with aa406 corresponding to the wild type C-terminal residue), which was used for DSF and other experiments; made in house; host or cells: E. coli RP523 (hemB mutant, unable to synthesize heme)
T1 sequence (P48775 19-406): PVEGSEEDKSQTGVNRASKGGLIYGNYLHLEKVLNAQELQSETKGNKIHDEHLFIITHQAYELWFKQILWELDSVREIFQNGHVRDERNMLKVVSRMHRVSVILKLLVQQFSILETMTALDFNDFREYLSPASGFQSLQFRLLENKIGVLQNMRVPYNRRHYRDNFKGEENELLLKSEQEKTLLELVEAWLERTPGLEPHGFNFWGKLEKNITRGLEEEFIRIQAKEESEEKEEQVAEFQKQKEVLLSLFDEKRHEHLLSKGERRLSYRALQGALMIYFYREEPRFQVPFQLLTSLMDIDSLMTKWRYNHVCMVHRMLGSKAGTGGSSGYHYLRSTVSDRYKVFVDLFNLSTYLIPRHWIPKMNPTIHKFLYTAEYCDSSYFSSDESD
Procedure: […] S5 online).
Protein thermal stability and small molecule ligand binding of TDO2 in vitro was studied using differential scanning fluorimetry (DSF, also known as thermal shift assay)[34]. Assay ingredients and ligands were combined to obtain a mixture composed of 10 µM TDO2 and 10x SYPRO Orange, in assay buffer (50 mM HEPES-NaOH pH 8.0, 200 mM NaCl, 2 mM TCEP, 10% glycerol) and 2% final DMSO concentration. Small molecule chemical ligands were taken from DMSO stock solution (100 mM, 10 mM) and diluted in DMSO transferred to wells of PCR Plates (Micro Amp Fast 96-well Reaction Plates, Applied Biosystems) to ensure matching final DMSO concentrations.
DSF was carried out with a StepOnePlus™ real time PCR system. Thermal denaturation of TDO2 was monitored with a ramp rate of 1 K/min. Protein melting curves were evaluated using the Thermal Shift Software v 1.3. (Thermo Fisher Scientific) to derive differences in midpoint melting-temperatures (derivative model). The thermal shift (DTm) is documented as the difference between the reference midpoint melting temperature of proteins (containing 500 µM AMT) in the presence of the ligand vehicle (DMSO) and in the presence of ligand.
Supplementary Table S2. Differential scanning fluorimetry data corresponding to supplementary figure S4. The experiments were carried out in quadruplicate, or in triplicate where single outlier values (highlighted in bold italics) were excluded from calculation of the melting curves. AMT was added at a concentration of 500 µM; […] and […] were added at a concentration of 25 µM.

[4] = apo-TDO2 + AMT 500 µM alone, shift vs apo, single replicates, in °C

Compound | progression-free survival or overall survival [1] | effect on catalytic properties of holo-TDO2 [2] | effect on proteolytic degradation of holo-TDO2 [2] | stabilization of isolated holo-TDO2 enzyme [2] | melting temperature of apo-TDO2 in the absence of inhibitor ([3]; 500 µM AMT present) | Δ Tm Boltzmann [3, 4] | Δ Tm Derivative [3, 4] | Tm Boltzmann ([3]; apo-TDO2 + AMT 500 µM alone, single replicates (text b14 gives °C), in °C) | Tm Derivative ([3]; apo-TDO2 + AMT 500 µM alone, single replicates, in °C)
NS(=O)(=O)NCCNc1nonc1C(=NO)Nc1ccc(F)c(Br)c1 [epacadostat] | failed to show improved progression-free survival or overall survival compared with placebo |  |  |  |  |  |  |  | 
C[C@](N)(Cc1c[nH]c2ccccc12)C(=O)O [AMT, α-methyltryptophan, reference compound] |  | not affecting the catalytic properties | prevented its proteolytic degradation by the ubiquitin-dependent proteasomal pathway | stabilized the isolated holo-TDO2 enzyme against heat, urea and proteases | 59.2 °C | 9.95 and 10.71 and 10.46 | 9.6 and 10.48 and 10.27 | 58.75 and 59.51 and 59.26 | 58.49 and 59.36 and 59.16
